The test deals with T1, Calpain-1 catalytic subunit (Homo sapiens, UniProt P07384).
T1 sequence (P07384 whole entry): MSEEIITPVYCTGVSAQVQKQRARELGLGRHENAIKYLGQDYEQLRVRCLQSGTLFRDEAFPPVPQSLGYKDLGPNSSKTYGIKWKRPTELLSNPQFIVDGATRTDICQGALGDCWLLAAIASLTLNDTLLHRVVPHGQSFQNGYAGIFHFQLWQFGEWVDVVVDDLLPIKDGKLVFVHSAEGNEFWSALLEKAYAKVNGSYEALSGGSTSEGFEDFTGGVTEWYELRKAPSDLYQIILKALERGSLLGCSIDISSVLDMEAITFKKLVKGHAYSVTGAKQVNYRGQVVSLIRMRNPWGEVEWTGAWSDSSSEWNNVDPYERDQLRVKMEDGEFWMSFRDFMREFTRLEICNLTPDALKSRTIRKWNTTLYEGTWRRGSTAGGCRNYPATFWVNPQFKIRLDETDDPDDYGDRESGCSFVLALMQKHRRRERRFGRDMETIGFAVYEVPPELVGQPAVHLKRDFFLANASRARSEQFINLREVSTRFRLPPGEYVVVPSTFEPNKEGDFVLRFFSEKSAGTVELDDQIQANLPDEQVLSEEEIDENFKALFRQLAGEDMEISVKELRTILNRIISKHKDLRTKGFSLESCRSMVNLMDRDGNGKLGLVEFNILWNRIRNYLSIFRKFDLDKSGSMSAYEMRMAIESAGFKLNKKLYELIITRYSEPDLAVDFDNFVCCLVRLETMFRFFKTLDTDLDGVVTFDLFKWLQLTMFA
Description: Inhibitory activity against calpain.

The molecule `NC(=O)CCc1cc[nH]c1` came in with an IC50 of 1400 nM.

Values taken from ChEMBL document CHEMBL1129109, “Synthesis of cystamidin a (pyrrole-3-propanamide), a reported calpain inhibitor” (Bioorg Med Chem Lett, 1996).
